Where two headings read alike, the source gives them in different places.
Experiments:
[1] = intravenous administration, cited from earlier work
[2] = in many patients; cited from earlier work
[3] = tested on: parathyroid hormone (PTH) secretion; details: maintenance dialysis patients; cited from earlier work
[4] = cited from earlier work
[5] = cited from earlier work; remark: listed apart in the source
[6] = pH 6.0; Sheikh et al. (Note 2); cited from earlier work
[7] = 77 mEq per os; normal subjects; cited from earlier work
[8] = Solubility in water of cationic phosphate binders (Lange's Handbook); details: relative hydrophile by solubility in water
[9] = hemodialysis or peritoneal dialysis patients; cited from earlier work

In the case of `C[N+](C)(C)C[C@H](O)CC(=O)[O-]` [L-carnitine, L-(−)-Carnitine], the “effect on total, LDL and HDL cholesterol” value [1] is listed as “decrease total cholesterol and LDL cholesterol while significantly increasing HDL cholesterol” and the “effect on serum phosphate concentrations” value ([1]; maintenance hemodialysis patients) is listed as “reduced the serum phosphate concentrations significantly”.

For `[Mg+2].[OH-].[OH-]` [Magnesium Hydroxide], the severe hyperkalemia [2] is listed as no more than 8 mEq/L, the “suppression of parathyroid hormone (PTH) secretion” value [3] is listed as “Neither the combination of oral calcium carbonate/magnesium hydroxide nor magnesium hydroxide alone was effective” and the “serum Pi level” value ([4]; average 734 mg elemental Mg/day, three to five weeks, control (no binders) 9.0 mg/dL) is listed as 8.1 mg/dL. The “mean serum Mg level” value ([4]; average 734 mg elemental Mg/day, dialysate Mg 1.2 to 1.8 mg/dl) was 4.32 mg/dL, the “patients who developed diarrhea” value ([4]; nine patients treated) was “Four of nine” and the “serum Mg level, average” value ([5]; during Mg(OH)2 treatment) was 4.3 mg/dL. For the same compound, the “serum Pi level” value ([5]; human, in vivo) was 6.1 mg/dL.

In the case of Calcium Gluconate, the “Observed in vitro Pi Binding, %” value [6] is given as 90%.

For Magnesium Acetate, the Pi absorption [7] is given as 28%.

With `[O]=[Mg]` [Magnesium Oxide] the “Hydrophile?” value [8] was “No”.

In the case of choline magnesium trisalicylate, the “effect on serum Pi levels” value [9] is listed as “no effect”.

— US8034833B2, “Phosphorus binder for treatment of renal disease” (Biolink Life Sciences, Inc., priority 2008, dated 2011)
